Data: PMC7979765, “trans-Translation inhibitors bind to a novel site on the ribosome and clear Neisseria gonorrhoeae in vivo” (Nature Communications, 2021)
“And” between values parts separate entries of the source, which are not always exact repeats. Equal values may be shown once. Read-outs that look alike come from different tables or passages of the source.

Columns and labels:
Caco-2 permeability = assay type: in vitro ADME, human; details: human
Description: To evaluate the potential for oral bioavailability, the ability of prioritized compounds to permeate a monolayer of Caco-2 (ATCC HTB-37) intestinal epithelial cells was determined as described. Caco-2 permeability values (Papp) > 1 × 10^−6 cm/sec are predictive of oral bioavailability.

[1] = Serum protein binding, rat; assay type: in vitro ADME; details: Eurofins; for fraction unbound: rat, serum, read-out: Serum binding (% bound) Rat (converted)
Description: (§1) Serum protein binding was determined using an equilibrium dialysis method as described. The amount of compound in each chamber (buffer and serum) was measured using methods for reverse-phase liquid chromatography/mass spectroscopy methods that were customized for each compound.

[2] = Serum protein binding, dog; assay type: in vitro ADME
Description: as §1

[3] = tested on: mitochondrial membrane potential (MMP, TMRE signal); assay: Multiplexed cytotoxicity assay (nuclei, ROS, TMRE); assay type: cell-based, human; details: human, primary hepatocytes, 24 h, read-out: MMP inhibition (fold induction)
Description: (§2) Multiplexed cytotoxicity assay — Human primary hepatocytes were grown on collagen I coated optical plates, cultured in hepatocytes culture media in a humidified 5% CO2 atmosphere at 37 °C. Cells were incubated in the presence of MBX-4132 at 10 concentrations starting a 100 µM and serially diluted 3.16-fold for 24 h at 37 °C, incubated for 30 min with multiplexed fluorescent dyes (Hoescht, 6-carboxy-2’,7’-dichlorodihydrofluorescein diazetat, and TMRE) and imaged to allow visualization of nuclei, reactive oxygen species generation, and mitochondrial oxidation. A >3.5-fold induction of ROS was considered consistent with formation of ROS and a >2-fold change in TMRE signal indicated an increase or decrease in mitochondrial membrane potential.

[4] = tested on: reactive oxygen species (ROS) generation; assay: Multiplexed cytotoxicity assay (nuclei, ROS, TMRE); assay type: cell-based, human; details: human, primary hepatocytes, 24 h
Description: as §2

CYP2B6 = biological target: T1, CYP2B6 (Homo sapiens, UniProt P20813); assay: Cyp inhibition assay 4877; assay type: in vitro ADME; details: catalog reference 4877, read-out: pIC50 (µM) reported (converted)
T1 construct: Eurofins Discovery Services (contract assay) 4877
Description: (§3) Several in vitro selectivity assays were performed at Eurofins Discovery Services using established methods and controls that behaved as expected (Supplementary Tables 5 and 6). […] For receptor panel profiling, MBX-4132 was evaluated at 10 μM and activity of >50% (agonist or antagonist; note that negative % inhibition indicates agonism) was scored as active.

CYP2C19 = biological target: T2, CYP2C19 (Homo sapiens, UniProt P33261); assay: Cyp inhibition assay 4874; assay type: in vitro ADME; details: catalog reference 4874, read-out: pIC50 (µM) reported (converted)
T2 construct: Eurofins Discovery Services (contract assay) 4874
Description: as §3

CYP2D6 = biological target: T3, CYP2D6 (Homo sapiens, UniProt P10635); assay: Cyp inhibition assay 4875; assay type: in vitro ADME; details: catalog reference 4875, read-out: pIC50 (µM) reported (converted)
T3 construct: Eurofins Discovery Services (contract assay) 4875
Description: as §3

Cav1.2 = biological target: T4, Cav1.2 (Homo sapiens, UniProt Q13936); assay: cell-based
T4 construct: Eurofins Discovery Services (contract assay) CYL8051QP2DR
Description: as §3

KCNQ1/mink = biological target: T5, KCNQ1/mink (Homo sapiens, UniProt P51787); assay: cell-based
T5 construct: Eurofins Discovery Services (contract assay) CYL8007QP2DR
Description: as §3

Androgen (testosterone) = biological target: T6, Androgen (testosterone) (Homo sapiens, UniProt P10275); assay: Receptor Profiling 206000; assay type: binding
T6 construct: purchased Eurofins Discovery Services (Panlabs safety panel)
Description: as §3

[5] = biological target: T7, Cholecystokinin CKK1 (CCKA) (Homo sapiens, UniProt P32238); assay: Receptor Profiling 218030; assay type: binding
T7 construct: purchased Eurofins Discovery Services (Panlabs safety panel)
Description: as §3

Glucocorticoid = biological target: T8, Glucocorticoid (Homo sapiens, UniProt P04150); assay: Receptor Profiling 232030; assay type: binding
T8 construct: purchased Eurofins Discovery Services (Panlabs safety panel)
Description: as §3

Histamine H2 = biological target: T9, Histamine H2 (Homo sapiens, UniProt P25021); assay: Receptor Profiling 239710; assay type: binding
T9 construct: purchased Eurofins Discovery Services (Panlabs safety panel)
Description: as §3

Opiate Kappa (OP2, KOP) = biological target: T10, Opiate Kappa (OP2, KOP) (Homo sapiens, UniProt P41145); assay: Receptor Profiling 260210; assay type: binding
T10 construct: purchased Eurofins Discovery Services (Panlabs safety panel)
Description: as §3

Opiate Mu (OP3, MOP) = biological target: T11, Opiate Mu (OP3, MOP) (Homo sapiens, UniProt P35372); assay: Receptor Profiling 260410; assay type: binding
T11 construct: purchased Eurofins Discovery Services (Panlabs safety panel)
Description: as §3

[6] = biological target: T12, Transporter, Serotonin (5-Hyroxytryptamine) (SERT) (Homo sapiens, UniProt P31645); assay: Receptor Profiling 274030; assay type: binding
T12 construct: purchased Eurofins Discovery Services 274030
Description: as §3

[7] = tested on: N. gonorrhoeae strain H041; assay: In vivo efficacy in the gonorrhea mouse model; details: for mouse cfu: individual mice, 2.00E+01 = no CFU/mL recovered, limit of detection

T7 sequence (P32238 whole entry): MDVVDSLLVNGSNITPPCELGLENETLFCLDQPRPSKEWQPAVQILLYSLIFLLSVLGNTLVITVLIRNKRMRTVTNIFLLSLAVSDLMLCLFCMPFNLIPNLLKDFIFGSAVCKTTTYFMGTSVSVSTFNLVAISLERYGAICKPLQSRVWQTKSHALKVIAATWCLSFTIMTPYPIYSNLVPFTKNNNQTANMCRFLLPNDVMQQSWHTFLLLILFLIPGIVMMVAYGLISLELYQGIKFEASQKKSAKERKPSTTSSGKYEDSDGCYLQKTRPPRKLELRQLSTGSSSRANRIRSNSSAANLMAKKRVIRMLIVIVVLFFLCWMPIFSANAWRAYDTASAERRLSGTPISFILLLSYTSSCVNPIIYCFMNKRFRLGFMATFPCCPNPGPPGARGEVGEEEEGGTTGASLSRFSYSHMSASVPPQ
T1 sequence (P20813 whole entry): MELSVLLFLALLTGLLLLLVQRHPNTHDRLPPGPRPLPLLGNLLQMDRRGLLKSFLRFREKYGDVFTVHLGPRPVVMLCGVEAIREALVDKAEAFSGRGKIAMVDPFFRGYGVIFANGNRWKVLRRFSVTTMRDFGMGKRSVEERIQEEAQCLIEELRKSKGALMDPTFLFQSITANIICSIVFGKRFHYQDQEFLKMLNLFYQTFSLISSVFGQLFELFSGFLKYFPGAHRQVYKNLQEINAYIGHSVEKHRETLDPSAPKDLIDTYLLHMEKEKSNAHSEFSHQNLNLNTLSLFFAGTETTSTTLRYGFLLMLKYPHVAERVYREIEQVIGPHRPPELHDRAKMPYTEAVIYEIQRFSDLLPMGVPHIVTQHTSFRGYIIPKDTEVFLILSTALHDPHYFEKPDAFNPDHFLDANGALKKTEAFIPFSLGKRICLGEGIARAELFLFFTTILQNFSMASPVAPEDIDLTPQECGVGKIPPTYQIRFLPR
T9 sequence (P25021 whole entry): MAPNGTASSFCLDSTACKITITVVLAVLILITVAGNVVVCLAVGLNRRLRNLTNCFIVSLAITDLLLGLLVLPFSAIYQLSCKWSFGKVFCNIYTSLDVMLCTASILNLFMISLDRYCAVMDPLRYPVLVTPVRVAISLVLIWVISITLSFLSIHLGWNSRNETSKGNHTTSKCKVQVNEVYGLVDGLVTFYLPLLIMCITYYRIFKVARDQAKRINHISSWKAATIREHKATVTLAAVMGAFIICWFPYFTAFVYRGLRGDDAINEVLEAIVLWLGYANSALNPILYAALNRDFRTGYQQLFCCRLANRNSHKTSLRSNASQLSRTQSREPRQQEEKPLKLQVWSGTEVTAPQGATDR
T10 sequence (P41145 whole entry): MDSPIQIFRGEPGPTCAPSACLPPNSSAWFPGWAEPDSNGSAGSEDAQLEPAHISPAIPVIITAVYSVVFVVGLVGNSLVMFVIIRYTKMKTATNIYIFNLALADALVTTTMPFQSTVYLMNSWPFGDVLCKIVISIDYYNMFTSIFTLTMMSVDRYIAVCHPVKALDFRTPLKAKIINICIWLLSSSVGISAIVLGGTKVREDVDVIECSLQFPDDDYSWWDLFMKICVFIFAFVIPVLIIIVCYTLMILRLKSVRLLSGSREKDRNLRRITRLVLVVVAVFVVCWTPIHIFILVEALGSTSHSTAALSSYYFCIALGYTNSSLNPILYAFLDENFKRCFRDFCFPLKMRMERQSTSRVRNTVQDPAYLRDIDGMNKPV
T8 sequence (P04150 whole entry): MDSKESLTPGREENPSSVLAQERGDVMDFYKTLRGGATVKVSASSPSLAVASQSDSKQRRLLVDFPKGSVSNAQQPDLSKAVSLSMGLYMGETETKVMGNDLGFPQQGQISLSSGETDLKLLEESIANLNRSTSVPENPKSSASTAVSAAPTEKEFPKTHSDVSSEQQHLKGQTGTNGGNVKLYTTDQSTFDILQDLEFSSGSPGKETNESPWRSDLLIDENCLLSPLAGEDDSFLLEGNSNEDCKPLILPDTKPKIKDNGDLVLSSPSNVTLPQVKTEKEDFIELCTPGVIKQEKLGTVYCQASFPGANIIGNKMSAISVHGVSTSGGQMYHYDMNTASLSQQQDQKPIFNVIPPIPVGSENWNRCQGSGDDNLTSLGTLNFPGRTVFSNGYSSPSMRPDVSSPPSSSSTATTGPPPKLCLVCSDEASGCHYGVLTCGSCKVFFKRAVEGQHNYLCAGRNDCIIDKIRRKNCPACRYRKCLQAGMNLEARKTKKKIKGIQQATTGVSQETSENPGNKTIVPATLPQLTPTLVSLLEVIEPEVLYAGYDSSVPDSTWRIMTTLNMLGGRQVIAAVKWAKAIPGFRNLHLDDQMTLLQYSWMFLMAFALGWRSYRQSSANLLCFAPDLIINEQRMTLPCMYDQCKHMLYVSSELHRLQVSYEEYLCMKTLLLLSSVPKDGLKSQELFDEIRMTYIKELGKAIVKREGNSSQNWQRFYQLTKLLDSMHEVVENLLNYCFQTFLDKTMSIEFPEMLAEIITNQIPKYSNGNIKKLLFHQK
T6 sequence (P10275 whole entry): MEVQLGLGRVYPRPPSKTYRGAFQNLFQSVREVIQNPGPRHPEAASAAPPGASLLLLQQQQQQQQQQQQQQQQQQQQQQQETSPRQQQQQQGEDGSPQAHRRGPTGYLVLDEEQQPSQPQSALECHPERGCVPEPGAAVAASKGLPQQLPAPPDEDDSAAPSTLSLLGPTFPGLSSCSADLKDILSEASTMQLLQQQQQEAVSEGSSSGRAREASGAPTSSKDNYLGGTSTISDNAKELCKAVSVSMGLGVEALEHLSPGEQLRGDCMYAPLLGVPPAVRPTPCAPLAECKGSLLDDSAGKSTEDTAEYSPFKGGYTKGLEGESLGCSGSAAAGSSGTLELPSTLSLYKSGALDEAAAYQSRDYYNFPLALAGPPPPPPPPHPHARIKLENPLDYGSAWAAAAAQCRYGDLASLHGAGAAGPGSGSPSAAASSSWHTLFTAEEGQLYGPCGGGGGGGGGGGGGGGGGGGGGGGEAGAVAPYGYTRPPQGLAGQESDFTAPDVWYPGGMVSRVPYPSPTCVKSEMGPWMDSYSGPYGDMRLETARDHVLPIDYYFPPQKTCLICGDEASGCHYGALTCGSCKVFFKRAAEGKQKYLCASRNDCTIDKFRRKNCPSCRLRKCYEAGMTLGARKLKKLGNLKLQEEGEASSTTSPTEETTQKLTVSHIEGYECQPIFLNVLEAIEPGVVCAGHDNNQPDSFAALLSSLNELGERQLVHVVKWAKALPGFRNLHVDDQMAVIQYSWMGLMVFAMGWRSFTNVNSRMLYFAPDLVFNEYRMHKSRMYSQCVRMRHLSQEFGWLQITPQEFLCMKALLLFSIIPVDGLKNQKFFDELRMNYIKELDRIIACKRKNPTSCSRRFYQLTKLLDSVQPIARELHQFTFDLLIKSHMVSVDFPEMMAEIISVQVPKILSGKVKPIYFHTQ
T12 sequence (P31645 whole entry): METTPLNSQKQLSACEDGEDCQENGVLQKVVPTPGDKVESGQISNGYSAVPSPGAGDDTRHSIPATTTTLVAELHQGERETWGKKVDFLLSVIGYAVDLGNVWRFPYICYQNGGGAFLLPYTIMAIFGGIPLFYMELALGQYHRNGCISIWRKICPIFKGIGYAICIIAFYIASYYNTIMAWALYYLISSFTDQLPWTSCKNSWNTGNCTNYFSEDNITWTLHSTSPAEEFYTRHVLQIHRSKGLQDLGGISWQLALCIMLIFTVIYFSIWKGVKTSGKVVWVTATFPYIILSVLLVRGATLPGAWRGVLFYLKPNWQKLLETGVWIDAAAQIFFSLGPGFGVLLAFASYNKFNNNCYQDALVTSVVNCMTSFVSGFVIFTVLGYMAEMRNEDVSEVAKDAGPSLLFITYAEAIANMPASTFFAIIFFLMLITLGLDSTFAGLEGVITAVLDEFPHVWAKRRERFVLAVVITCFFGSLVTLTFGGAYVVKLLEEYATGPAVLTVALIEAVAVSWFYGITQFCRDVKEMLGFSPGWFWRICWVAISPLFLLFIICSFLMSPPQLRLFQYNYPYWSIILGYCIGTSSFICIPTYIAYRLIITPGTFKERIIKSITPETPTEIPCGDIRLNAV
T11 sequence (P35372 whole entry): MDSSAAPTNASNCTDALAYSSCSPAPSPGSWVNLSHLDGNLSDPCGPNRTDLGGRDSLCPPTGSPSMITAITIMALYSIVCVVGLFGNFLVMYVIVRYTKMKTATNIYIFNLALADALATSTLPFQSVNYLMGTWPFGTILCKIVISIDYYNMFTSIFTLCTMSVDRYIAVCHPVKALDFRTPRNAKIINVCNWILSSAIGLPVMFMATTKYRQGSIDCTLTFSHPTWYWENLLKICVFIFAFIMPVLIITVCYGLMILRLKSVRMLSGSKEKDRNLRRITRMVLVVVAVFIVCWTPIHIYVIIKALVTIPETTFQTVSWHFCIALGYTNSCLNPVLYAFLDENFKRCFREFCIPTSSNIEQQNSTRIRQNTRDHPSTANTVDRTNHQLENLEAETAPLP
T3 sequence (P10635 whole entry): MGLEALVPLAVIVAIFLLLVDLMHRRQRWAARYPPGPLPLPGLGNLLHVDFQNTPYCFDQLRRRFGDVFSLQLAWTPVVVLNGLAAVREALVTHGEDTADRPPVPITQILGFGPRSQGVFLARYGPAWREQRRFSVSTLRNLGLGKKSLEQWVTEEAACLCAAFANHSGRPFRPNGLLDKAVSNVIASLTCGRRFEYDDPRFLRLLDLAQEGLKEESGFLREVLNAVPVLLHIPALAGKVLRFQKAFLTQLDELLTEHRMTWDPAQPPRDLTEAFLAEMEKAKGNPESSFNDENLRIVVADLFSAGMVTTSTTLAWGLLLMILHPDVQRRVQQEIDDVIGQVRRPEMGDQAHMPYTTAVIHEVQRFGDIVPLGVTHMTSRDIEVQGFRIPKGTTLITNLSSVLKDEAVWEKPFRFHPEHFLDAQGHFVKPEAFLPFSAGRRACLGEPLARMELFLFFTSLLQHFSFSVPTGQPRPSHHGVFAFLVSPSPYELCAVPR

O=C(Nc1nnc(-c2ccc(F)cc2)o1)N1CCc2ccccc2C1 [MBX-4132]
Papp A→B (Caco-2 permeability; Caco-2, A to B, read-out: Caco-2 Papp (A to B)): 11.1 ×10⁻⁶ cm/s | Papp A→B (Caco-2 permeability; Caco-2, A→B, Average Value, Eurofins, read-out: Caco-2 A→B): 11.1 ×10⁻⁶ cm/s | Papp A→B (Caco-2 permeability; Caco-2, A→B, Replicate 1/2, Eurofins, read-out: Caco-2 A→B): 12.4 ×10⁻⁶ cm/s | Papp A→B (Caco-2 permeability; Caco-2, A→B, Reported value, Eurofins, read-out: Caco-2 A→B): 11.1 ×10⁻⁶ cm/s | Papp B→A (Caco-2 permeability; Caco-2, B to A, read-out: Caco-2 Papp B to A): 7.3 ×10⁻⁶ cm/s | Papp B→A (Caco-2 permeability; Caco-2, B→A, Average Value, Eurofins, read-out: Caco-2 B→A): 7.3 ×10⁻⁶ cm/s | Papp B→A (Caco-2 permeability; Caco-2, B→A, Replicate 1/2, Eurofins, read-out: Caco-2 B→A): 6.33 ×10⁻⁶ cm/s | Papp B→A (Caco-2 permeability; Caco-2, B→A, Reported value, Eurofins, read-out: Caco-2 B→A): 7.3 ×10⁻⁶ cm/s | Serum binding (% bound) Rat ([1]; Replicate 1/2): 99.9% and 85.2% | fraction unbound ([1]; Reported value): 0.07 | fraction unbound ([1]; Average Value): 0.074 | fraction unbound ([2]; Average Value, Eurofins, read-out: Serum binding (% bound) Dog (converted)): 0.048 | fraction unbound ([2]; Replicate 1/2, Eurofins, read-out: Serum binding (% bound) Dog (converted)): 0.095 and 0.002 | fraction unbound ([2]; Reported value, Eurofins, read-out: Serum binding (% bound) Dog (converted)): 0.048 | fraction unbound ([2]; read-out: Serum Binding (% bound) Dog (converted)): 0.048 | fold induction at 24 h, 1 μM ([3]; 1.00E+00 μM): 0.9 | fold induction at 24 h, 10 μM ([3]; 1.00E+01 μM): 1.1 | fold induction at 24 h, 0.1 μM ([3]; 1.00E-01 μM): 1.2 | fold induction at 24 h, 0.0101 μM ([3]; 1.01E-02 μM): 1 | fold induction at 24 h, 31.6 μM ([3]; 3.16E+01 μM): 1.1 | fold induction at 24 h, 3.17 μM ([3]; 3.17E+00 μM): 1 | fold induction at 24 h, 0.317 μM ([3]; 3.17E-01 μM): 0.9 | fold induction at 24 h, 0.0318 μM ([3]; 3.18E-02 μM): 0.9 | fold induction at 24 h, 0.00318 μM ([3]; 3.18E-03 μM): 1 | fold induction at 24 h, 1 μM ([4]; 1.00E+00 μM): 1.2 | fold induction at 24 h, 0.1 μM ([4]; 1.00E-01 μM): 1.4 | fold induction at 24 h, 0.0101 μM ([4]; 1.01E-02 μM): 1.4 | fold induction at 24 h, 3.17 μM ([4]; 3.17E+00 μM): 1.1 | fold induction at 24 h, 0.317 μM ([4]; 3.17E-01 μM): 1.2 | fold induction at 24 h, 0.0318 μM ([4]; 3.18E-02 μM): 0.9 | IC50 (CYP2B6): > 100 µM | IC50 (CYP2C19): > 100 µM | IC50 (CYP2D6): > 100 µM | IC50 (Cav1.2): > 30 µM | IC50 (KCNQ1/mink): > 30 µM | inhibition at 10 µM (Androgen (testosterone)): -2% | inhibition at 10 µM [5]: 66% | inhibition at 10 µM (Glucocorticoid): -2% | inhibition at 10 µM (Histamine H2): -7% | inhibition at 10 µM (Opiate Kappa (OP2, KOP)): 13% | inhibition at 10 µM (Opiate Mu (OP3, MOP)): 17% | inhibition at 10 µM [6]: -10% | mouse cfu ([7]; Day 5, MBX-4132 10 MPK, 10 mg/kg): 2.00E+01 CFU/mL (14×) and 4.20E+02 CFU/mL and 2.61E+03 CFU/mL and 2.38E+03 CFU/mL and 3.50E+05 CFU/mL and 1.00E+06 CFU/mL and 2.60E+02 CFU/mL | mouse cfu ([7]; Day 6, MBX-4132 10 MPK, 10 mg/kg): 2.00E+01 CFU/mL (16×) and 1.46E+03 CFU/mL and 2.08E+04 CFU/mL and 3.12E+05 CFU/mL and 7.20E+02 CFU/mL | mouse cfu ([7]; Day 7, MBX-4132 10 MPK, 10 mg/kg): 2.00E+01 CFU/mL (18×) and 1.01E+04 CFU/mL and 1.16E+04 CFU/mL | mouse cfu ([7]; Day 8, MBX-4132 10 MPK, 10 mg/kg): 2.00E+01 CFU/mL (18×) and 2.20E+02 CFU/mL and 7.00E+02 CFU/mL | mouse cfu ([7]; Day -1, MBX-4132 10 MPK, 10 mg/kg): 2.16E+06 CFU/mL and 4.97E+06 CFU/mL and 1.86E+05 CFU/mL and 1.04E+06 CFU/mL and 6.26E+06 CFU/mL and 2.02E+05 CFU/mL and 3.50E+04 CFU/mL and 5.46E+03 CFU/mL and 1.66E+05 CFU/mL and 6.46E+05 CFU/mL and 2.23E+05 CFU/mL and 2.90E+05 CFU/mL and 2.17E+05 CFU/mL and 6.58E+03 CFU/mL and 2.34E+06 CFU/mL and 3.20E+02 CFU/mL and 3.63E+06 CFU/mL and 4.88E+05 CFU/mL and 3.45E+06 CFU/mL and 2.43E+06 CFU/mL | mice cleared per day: cleared flag ([7]; MBX-4132 10 MPK, individual mice 1-20, 1 = cleared on the day, 0 = not cleared, 10 mg/kg): 1 and 0 | Day (mice cleared per day: day on which the mouse was cleared) ([7]; MBX-4132 10 MPK, individual mice 1-20, Day 8 with flag 0 = not cleared, 10 mg/kg): 3 and 8 and 6 and 5 and 1 and 4 and 2 | mice completely cleared of infection ([7]; single oral dose 10 mg/kg, by 6 days, N. gonorrhoeae H041): 80%
